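Cells were grown in 96-well plates and exposed to each compound for 48 hours at five concentrations; endpoints were interpolated linearly between bracketing concentrations, or set to the highest concentration if not reached. At the GI50, growth is halved. At the TGI there is no net growth.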
How the values were obtained:
Assay in all cases: inhibition of tumour cell growth, NCI panel, 48 h
786-0 renal = test system: 786-0 renal
A498 renal = test system: A498 renal
A549 NSCLC = test system: A549 NSCLC
ACHN renal = test system: ACHN renal
BT-549 breast = test system: BT-549 breast
CAKI-1 renal = test system: CAKI-1 renal
CCRF-CEM leukemia = test system: CCRF-CEM leukemia
COLO 205 colon = test system: COLO 205 colon
DU-145 prostate = test system: DU-145 prostate
HCC-2998 colon = test system: HCC-2998 colon
HCT-116 colon = test system: HCT-116 colon
HCT-15 colon = test system: HCT-15 colon
HL-60(TB) leukemia = test system: HL-60(TB) leukemia
HOP-62 NSCLC = test system: HOP-62 NSCLC
HOP-92 NSCLC = test system: HOP-92 NSCLC
HS 578T breast = test system: HS 578T breast
HT29 colon = test system: HT29 colon
IGROV1 ovarian = test system: IGROV1 ovarian
K-562 leukemia = test system: K-562 leukemia
KM12 colon = test system: KM12 colon
LOX IMVI melanoma = test system: LOX IMVI melanoma
M14 melanoma = test system: M14 melanoma
MALME-3M melanoma = test system: MALME-3M melanoma
MCF7 breast = test system: MCF7 breast
MDA-MB-231 breast = test system: MDA-MB-231 breast
MDA-MB-435 = test system: MDA-MB-435
MOLT-4 leukemia = test system: MOLT-4 leukemia
NCI-H226 lung = test system: NCI-H226 lung
NCI-H23 lung = test system: NCI-H23 lung
NCI-H460 lung = test system: NCI-H460 lung
NCI-H522 lung = test system: NCI-H522 lung
NCI/ADR-RES ovarian = test system: NCI/ADR-RES ovarian
OVCAR-3 ovarian = test system: OVCAR-3 ovarian
OVCAR-4 ovarian = test system: OVCAR-4 ovarian
OVCAR-5 ovarian = test system: OVCAR-5 ovarian
OVCAR-8 ovarian = test system: OVCAR-8 ovarian
PC-3 prostate = test system: PC-3 prostate
RPMI-8226 leukemia = test system: RPMI-8226 leukemia
SF-268 CNS = test system: SF-268 CNS
SF-295 CNS = test system: SF-295 CNS
SF-539 CNS = test system: SF-539 CNS
SK-MEL-2 melanoma = test system: SK-MEL-2 melanoma
SK-MEL-28 melanoma = test system: SK-MEL-28 melanoma
SK-MEL-5 melanoma = test system: SK-MEL-5 melanoma
SK-OV-3 ovarian = test system: SK-OV-3 ovarian
SN12C renal = test system: SN12C renal
SNB-19 CNS = test system: SNB-19 CNS
SNB-75 CNS = test system: SNB-75 CNS
SR leukemia = test system: SR leukemia
SW-620 colon = test system: SW-620 colon
T-47D breast = test system: T-47D breast
TK-10 renal = test system: TK-10 renal
UACC-257 melanoma = test system: UACC-257 melanoma
UACC-62 melanoma = test system: UACC-62 melanoma
UO-31 renal = test system: UO-31 renal

SMILES: O=C(NCCCN1CCC(N2CCCCC2)CC1)C1=Cc2cc(Br)ccc2OC1
- GI50 (786-0 renal): 11.2 µM
- TGI (786-0 renal): 25.8 µM
- GI50 (A498 renal): 3.88 µM
- TGI (A498 renal): 18.7 µM
- GI50 (A549 NSCLC): 5.66 µM
- TGI (A549 NSCLC): 20.1 µM
- GI50 (ACHN renal): 10.2 µM
- TGI (ACHN renal): 27 µM
- GI50 (BT-549 breast): 13.9 µM
- TGI (BT-549 breast): 33 µM
- GI50 (CAKI-1 renal): 2.46 µM
- TGI (CAKI-1 renal): 6.09 µM
- GI50 (CCRF-CEM leukemia): 4.24 µM
- TGI (CCRF-CEM leukemia): 20.2 µM
- GI50 (COLO 205 colon): 2.16 µM
- TGI (COLO 205 colon): 4.29 µM
- GI50 (DU-145 prostate): 15.5 µM
- TGI (DU-145 prostate): 30.4 µM
- GI50 (HCC-2998 colon): 13.5 µM
- TGI (HCC-2998 colon): 27.2 µM
- GI50 (HCT-116 colon): 5.29 µM
- TGI (HCT-116 colon): 21.8 µM
- GI50 (HCT-15 colon): 3.47 µM
- TGI (HCT-15 colon): 17.1 µM
- GI50 (HL-60(TB) leukemia): 4.94 µM
- TGI (HL-60(TB) leukemia): 19.3 µM
- GI50 (HOP-62 NSCLC): 13.8 µM
- TGI (HOP-62 NSCLC): 27.2 µM
- GI50 (HOP-92 NSCLC): 3.68 µM
- TGI (HOP-92 NSCLC): 19.8 µM
- GI50 (HS 578T breast): 12.2 µM
- TGI (HS 578T breast): 33.4 µM
- GI50 (HT29 colon): 3.21 µM
- TGI (HT29 colon): 12.5 µM
- GI50 (IGROV1 ovarian): 15.9 µM
- TGI (IGROV1 ovarian): 39.4 µM
- GI50 (K-562 leukemia): 1.98 µM
- TGI (K-562 leukemia): 4.63 µM
- GI50 (KM12 colon): 13.7 µM
- TGI (KM12 colon): 27.8 µM
- GI50 (LOX IMVI melanoma): 2.59 µM
- TGI (LOX IMVI melanoma): 5.73 µM
- GI50 (M14 melanoma): 2.22 µM
- TGI (M14 melanoma): 4.71 µM
- GI50 (MALME-3M melanoma): 2.11 µM
- TGI (MALME-3M melanoma): 3.89 µM
- GI50 (MCF7 breast): 4.45 µM
- TGI (MCF7 breast): 17.1 µM
- GI50 (MDA-MB-231 breast): 3.62 µM
- TGI (MDA-MB-231 breast): 13.8 µM
- GI50 (MDA-MB-435): 1.69 µM
- TGI (MDA-MB-435): 3.55 µM
- GI50 (MOLT-4 leukemia): 7.41 µM
- TGI (MOLT-4 leukemia): 26.3 µM
- GI50 (NCI-H226 lung): 16.9 µM
- TGI (NCI-H226 lung): 34.5 µM
- GI50 (NCI-H23 lung): 16.9 µM
- TGI (NCI-H23 lung): 36.2 µM
- GI50 (NCI-H460 lung): 8.43 µM
- TGI (NCI-H460 lung): 23.6 µM
- GI50 (NCI-H522 lung): 2.32 µM
- TGI (NCI-H522 lung): 6.12 µM
- GI50 (NCI/ADR-RES ovarian): 19.1 µM
- TGI (NCI/ADR-RES ovarian): 52.2 µM
- GI50 (OVCAR-3 ovarian): 12.3 µM
- TGI (OVCAR-3 ovarian): 26.8 µM
- GI50 (OVCAR-4 ovarian): 10 µM
- TGI (OVCAR-4 ovarian): 32 µM
- GI50 (OVCAR-5 ovarian): 19.9 µM
- TGI (OVCAR-5 ovarian): 70.2 µM
- GI50 (OVCAR-8 ovarian): 4.82 µM
- TGI (OVCAR-8 ovarian): 26.9 µM
- GI50 (PC-3 prostate): 11.7 µM
- TGI (PC-3 prostate): 26.8 µM
- GI50 (RPMI-8226 leukemia): 4.54 µM
- TGI (RPMI-8226 leukemia): 22.4 µM
- GI50 (SF-268 CNS): 3.51 µM
- TGI (SF-268 CNS): 13 µM
- GI50 (SF-295 CNS): 8.58 µM
- TGI (SF-295 CNS): 24.8 µM
- GI50 (SF-539 CNS): 2.09 µM
- TGI (SF-539 CNS): 5.04 µM
- GI50 (SK-MEL-2 melanoma): 8.14 µM
- TGI (SK-MEL-2 melanoma): 22.1 µM
- GI50 (SK-MEL-28 melanoma): 1.83 µM
- TGI (SK-MEL-28 melanoma): 3.54 µM
- GI50 (SK-MEL-5 melanoma): 1.89 µM
- TGI (SK-MEL-5 melanoma): 3.61 µM
- GI50 (SK-OV-3 ovarian): 16.2 µM
- TGI (SK-OV-3 ovarian): 30.9 µM
- GI50 (SN12C renal): 10.4 µM
- TGI (SN12C renal): 24.1 µM
- GI50 (SNB-19 CNS): 14.2 µM
- TGI (SNB-19 CNS): 31.3 µM
- GI50 (SNB-75 CNS): 10.9 µM
- TGI (SNB-75 CNS): 23.3 µM
- GI50 (SR leukemia): 2.5 µM
- TGI (SR leukemia): 6.15 µM
- GI50 (SW-620 colon): 5.16 µM
- TGI (SW-620 colon): 19 µM
- GI50 (T-47D breast): 2.04 µM
- TGI (T-47D breast): 4.98 µM
- GI50 (TK-10 renal): 14.3 µM
- TGI (TK-10 renal): 27.7 µM
- GI50 (UACC-257 melanoma): 1.9 µM
- TGI (UACC-257 melanoma): 3.89 µM
- GI50 (UACC-62 melanoma): 1.83 µM
- TGI (UACC-62 melanoma): 3.49 µM
- GI50 (UO-31 renal): 6.71 µM
- TGI (UO-31 renal): 20.4 µM

Reference: PubChem BioAssay (NCI)
